Values quoted from earlier work as cited in patent publication US12618855B2, “Serum protein biomarker panel for idiopathic pulmonary fibrosis” (Children's Hospital Medical Center, priority 2019, dated 2026).

Target: p110β (Homo sapiens, UniProt P42338)
Conditions: p110β compared with p110α, p110-γ and p110-δ (equipotent)

p110β, sequence (P42338 whole entry, species assumed): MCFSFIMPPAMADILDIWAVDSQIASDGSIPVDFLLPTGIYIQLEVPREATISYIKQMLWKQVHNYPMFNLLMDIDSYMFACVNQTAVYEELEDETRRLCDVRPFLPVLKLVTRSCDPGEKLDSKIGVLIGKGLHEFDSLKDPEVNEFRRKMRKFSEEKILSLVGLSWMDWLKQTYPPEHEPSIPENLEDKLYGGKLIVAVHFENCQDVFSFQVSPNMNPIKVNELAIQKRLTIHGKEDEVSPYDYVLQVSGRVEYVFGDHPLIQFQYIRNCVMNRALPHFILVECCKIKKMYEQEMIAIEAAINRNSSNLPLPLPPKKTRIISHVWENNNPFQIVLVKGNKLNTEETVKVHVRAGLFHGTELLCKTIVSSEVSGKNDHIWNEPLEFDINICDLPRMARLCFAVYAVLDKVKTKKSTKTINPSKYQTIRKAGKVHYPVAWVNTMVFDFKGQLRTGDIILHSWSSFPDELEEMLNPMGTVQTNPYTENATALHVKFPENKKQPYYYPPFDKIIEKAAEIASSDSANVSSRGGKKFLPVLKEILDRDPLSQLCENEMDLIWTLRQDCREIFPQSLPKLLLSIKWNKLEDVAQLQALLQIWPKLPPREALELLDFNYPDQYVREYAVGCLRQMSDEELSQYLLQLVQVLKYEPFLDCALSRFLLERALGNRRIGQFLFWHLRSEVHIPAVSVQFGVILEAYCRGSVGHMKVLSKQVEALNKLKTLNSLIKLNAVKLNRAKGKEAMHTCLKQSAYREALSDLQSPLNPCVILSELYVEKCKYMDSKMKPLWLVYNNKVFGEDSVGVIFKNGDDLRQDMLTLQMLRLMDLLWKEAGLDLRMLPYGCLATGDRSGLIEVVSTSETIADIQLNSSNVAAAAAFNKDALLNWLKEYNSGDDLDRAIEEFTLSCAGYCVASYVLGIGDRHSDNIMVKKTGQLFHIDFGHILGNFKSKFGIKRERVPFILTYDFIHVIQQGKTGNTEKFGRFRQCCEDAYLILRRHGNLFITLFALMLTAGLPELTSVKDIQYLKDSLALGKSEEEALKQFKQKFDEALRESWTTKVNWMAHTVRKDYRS
p110β, sequence (P27986 whole entry partner, species assumed): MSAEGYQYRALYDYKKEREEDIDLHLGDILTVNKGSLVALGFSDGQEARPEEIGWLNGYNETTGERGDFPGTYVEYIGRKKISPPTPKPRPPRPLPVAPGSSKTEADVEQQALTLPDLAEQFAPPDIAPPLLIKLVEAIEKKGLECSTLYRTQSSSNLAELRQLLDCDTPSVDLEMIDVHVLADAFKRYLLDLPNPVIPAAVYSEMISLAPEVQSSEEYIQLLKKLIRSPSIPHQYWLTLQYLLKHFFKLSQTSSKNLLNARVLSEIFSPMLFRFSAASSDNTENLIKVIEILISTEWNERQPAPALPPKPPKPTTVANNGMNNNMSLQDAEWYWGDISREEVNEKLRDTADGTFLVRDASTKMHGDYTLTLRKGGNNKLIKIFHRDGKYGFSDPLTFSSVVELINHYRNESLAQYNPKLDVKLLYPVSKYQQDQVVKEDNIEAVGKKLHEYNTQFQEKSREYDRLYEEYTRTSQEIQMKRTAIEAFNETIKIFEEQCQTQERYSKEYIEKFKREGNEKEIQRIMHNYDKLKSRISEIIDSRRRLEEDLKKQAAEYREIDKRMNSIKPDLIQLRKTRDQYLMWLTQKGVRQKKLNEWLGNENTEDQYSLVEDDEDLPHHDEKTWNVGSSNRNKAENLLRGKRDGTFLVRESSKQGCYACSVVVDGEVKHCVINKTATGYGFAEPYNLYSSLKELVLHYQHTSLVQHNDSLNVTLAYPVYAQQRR

lower potency of p110β inhibition: 30 fold
Compound: Cc1nc(-c2cn3c(n2)-c2ccc(-c4cnn(C(C)(C)C(N)=O)c4)cc2OCC3)n(C(C)C)n1 [Taselisib]
